From ChEMBL document CHEMBL5137047, “Design, synthesis and anti-inflammatory evaluation of aloe-emodin derivatives as potential modulators of Akt, NF-κB and JNK signaling pathways” (Eur J Med Chem, 2022)
The source made the active and inactive calls. The rule behind the calls is not given here.

What was measured:
RAW264.7 [1] = experiment: Antiinflammatory activity against mouse RAW264.7 cells assessed as inhibition of LPS-induced nitric oxide production at 5 uM measured after 24 hrs; assay type: functional, cell-based
RAW264.7 [2] = experiment: Inhibition of IL-6 mRNA expression in LPS-stimulated mouse RAW264.7 cells measured after 24 hrs by qRT-PCR analysis; assay type: functional, cell-based; conditions: dose 3.125-12.5 µM, DDE = dose-dependent effect
RAW264.7 [3] = experiment: Inhibition of LPS-induced NF-kappaB activation in mouse RAW264.7 cells assessed as reduction in translocation of p65 from cytoplasm to nucleus at 3.125 to 12.5 uM preincubated for 24 hrs followed by LPS addition and measured after 30 mins by immunofluorescence analysis; assay type: cell-based; conditions: dose 3.125-12.5 µM
RAW264.7 [4] = experiment: Downregulation of COX-2 protein expression in LPS-stimulated mouse RAW264.7 cells measured after 24 hrs by Western blot analysis; assay type: functional, cell-based; conditions: dose 3.125-12.5 µM
RAW264.7 [5] = experiment: Inhibition of TNF-alpha production in LPS-stimulated mouse RAW264.7 cells measured after 24 hrs by ELISA; assay type: functional, cell-based; conditions: dose 3.125-12.5 µM, DDE = dose-dependent effect
RAW264.7 [6] = experiment: Inhibition of LPS-induced NF-kappaB activation in mouse RAW264.7 cells assessed as reduction in p65 expression in nucleus at 3.125 to 12.5 uM preincubated for 24 hrs followed by LPS addition and measured after 30 mins by Western blot analysis; assay type: cell-based; conditions: dose 3.125-12.5 µM
RAW264.7 [7] = experiment: Inhibition of IL-6 production in LPS-stimulated mouse RAW264.7 cells measured after 24 hrs by ELISA; assay type: functional, cell-based; conditions: dose 3.125-12.5 µM, DDE = dose-dependent effect
RAW264.7 [8] = experiment: Inhibition of IL-1beta mRNA expression in LPS-stimulated mouse RAW264.7 cells measured after 24 hrs by qRT-PCR analysis; assay type: functional, cell-based; conditions: dose 3.125-12.5 µM, DDE = dose-dependent effect
RAW264.7 [9] = experiment: Downregulation of iNOS protein expression in LPS-stimulated mouse RAW264.7 cells measured after 24 hrs by Western blot analysis; assay type: functional, cell-based; conditions: dose 3.125-12.5 µM
RAW264.7 [10] = experiment: Cytotoxicity against mouse RAW264.7 cells assessed as reduction in cell viability at upto 25 uM measured after 24 hrs by MTT assay; assay type: toxicity, cell-based; conditions: raw264.7, 24 h
RAW264.7 [11] = experiment: Inhibition of LPS-induced NF-kappaB activation in mouse RAW264.7 cells assessed as upregulation of IkappaBalpha protein expression at 3.125 to 12.5 uM preincubated for 24 hrs followed by LPS addition and measured after 30 mins by Western blot analysis; assay type: cell-based; conditions: dose 3.125-12.5 µM, time 24.5 hrs
[12] = target: c-Jun N-terminal kinase (Mus musculus) (UniProt Q91Y86+Q9WTU6+Q61831); experiment: Inhibition of JNK phosphorylation in LPS-induced mouse RAW264.7 cells measured after 24 hrs by Western blot analysis; assay type: cell-based; conditions: dose 3.125-12.5 µM, DDE = dose-dependent effect
RAW264.7 [13] = experiment: Inhibition of PGE2 production in LPS-stimulated mouse RAW264.7 cells measured after 24 hrs by ELISA; assay type: functional, cell-based; conditions: dose 3.125-12.5 µM, DDE = dose-dependent effect
RAW264.7 [14] = experiment: Inhibition of IL-1beta production in LPS-stimulated mouse RAW264.7 cells measured after 24 hrs by ELISA; assay type: functional, cell-based; conditions: dose 3.125-12.5 µM, DDE = dose-dependent effect
RAW264.7 [15] = experiment: Inhibition of COX-2 mRNA expression in LPS-stimulated mouse RAW264.7 cells measured after 24 hrs by qRT-PCR analysis; assay type: functional, cell-based; conditions: dose 3.125-12.5 µM, DDE = dose-dependent effect
RAW264.7 [16] = experiment: Inhibition of Akt phosphorylation in LPS-stimulated mouse RAW264.7 cells at 3.125 to 12.5 uM measured after 24 hrs by Western blot analysis; assay type: cell-based; conditions: dose 3.125-12.5 µM
RAW264.7 [17] = experiment: Antiinflammatory activity against mouse RAW264.7 cells assessed as inhibition of LPS-induced nitric oxide production measured after 24 hrs; assay type: functional, cell-based; conditions: RAW264.7, 24 h

Chain of c-Jun N-terminal kinase (Mus musculus) (Q61831 whole entry, looked up): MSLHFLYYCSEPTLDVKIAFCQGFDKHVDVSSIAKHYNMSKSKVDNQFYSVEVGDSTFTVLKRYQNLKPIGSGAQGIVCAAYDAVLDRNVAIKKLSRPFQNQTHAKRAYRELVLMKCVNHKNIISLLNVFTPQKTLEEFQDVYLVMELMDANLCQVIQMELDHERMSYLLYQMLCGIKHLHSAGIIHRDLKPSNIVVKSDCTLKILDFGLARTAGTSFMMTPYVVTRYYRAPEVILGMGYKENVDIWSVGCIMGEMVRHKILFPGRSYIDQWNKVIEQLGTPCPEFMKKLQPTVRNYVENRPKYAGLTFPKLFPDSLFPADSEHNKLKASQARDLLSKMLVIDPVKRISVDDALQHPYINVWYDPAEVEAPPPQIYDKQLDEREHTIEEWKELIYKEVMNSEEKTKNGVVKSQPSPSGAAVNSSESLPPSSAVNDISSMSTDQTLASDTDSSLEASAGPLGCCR
Chain of c-Jun N-terminal kinase (Mus musculus) (Q91Y86 whole entry, looked up): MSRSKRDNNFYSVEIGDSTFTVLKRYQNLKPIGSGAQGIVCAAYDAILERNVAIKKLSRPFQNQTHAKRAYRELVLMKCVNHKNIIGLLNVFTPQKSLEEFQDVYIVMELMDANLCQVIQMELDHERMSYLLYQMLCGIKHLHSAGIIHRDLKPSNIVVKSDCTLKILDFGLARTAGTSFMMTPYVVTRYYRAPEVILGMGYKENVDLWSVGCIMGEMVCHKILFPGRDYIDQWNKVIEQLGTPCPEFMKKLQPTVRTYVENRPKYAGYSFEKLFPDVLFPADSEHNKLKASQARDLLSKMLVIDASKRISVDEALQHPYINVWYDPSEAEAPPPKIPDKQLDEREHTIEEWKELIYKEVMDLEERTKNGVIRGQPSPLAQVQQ
Chain of c-Jun N-terminal kinase (Mus musculus) (Q9WTU6 whole entry, looked up): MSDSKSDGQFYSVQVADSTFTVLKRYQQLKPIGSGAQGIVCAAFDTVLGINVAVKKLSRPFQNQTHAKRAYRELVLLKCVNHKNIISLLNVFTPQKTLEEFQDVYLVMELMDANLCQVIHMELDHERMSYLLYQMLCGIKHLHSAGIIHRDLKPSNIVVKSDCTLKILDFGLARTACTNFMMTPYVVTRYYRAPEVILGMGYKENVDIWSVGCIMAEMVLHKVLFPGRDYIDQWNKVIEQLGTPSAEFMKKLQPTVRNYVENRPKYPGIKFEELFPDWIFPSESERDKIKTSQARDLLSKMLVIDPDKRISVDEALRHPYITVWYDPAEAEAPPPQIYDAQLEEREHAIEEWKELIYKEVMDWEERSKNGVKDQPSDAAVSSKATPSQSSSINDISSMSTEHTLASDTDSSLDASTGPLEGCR

Row | SMILES | NO production inhibition (active/inactive call) (RAW264.7 [1]) | further results
1 | O=C(CN1CCC(O)CC1)OCc1cc(O)c2c(c1)C(=O)c1cccc(O)c1C2=O | Active | 
2 | CC(=O)Oc1cccc2c1C(=O)c1c(OC(C)=O)cc(COC(=O)CN3CCC(OC(C)=O)CC3)cc1C2=O | Active | 
3 | CC(=O)Oc1cccc2c1C(=O)c1c(OC(C)=O)cc(COC(=O)CN3CCN(c4ccc(F)cc4)CC3)cc1C2=O | Active | 
4 | CCN(CC)CC(=O)OCc1cc(O)c2c(c1)C(=O)c1cccc(O)c1C2=O | Active | 
5 | O=C(CN1CCCC1)OCc1cc(O)c2c(c1)C(=O)c1cccc(O)c1C2=O | Active | 
6 | CC(C)N(C)CC(=O)OCc1cc(O)c2c(c1)C(=O)c1cccc(O)c1C2=O | Active | 
7 | O=C(CN1CCOCC1)OCc1cc(O)c2c(c1)C(=O)c1cccc(O)c1C2=O | Active | 
8 | O=C(CN1CCN(c2ccc(F)cc2)CC1)OCc1cc(O)c2c(c1)C(=O)c1cccc(O)c1C2=O | Active | 
9 | CC(=O)Oc1cccc2c1C(=O)c1c(OC(C)=O)cc(COC(=O)CN3CCOCC3)cc1C2=O | Active | 
10 | CC(=O)Oc1cccc2c1C(=O)c1c(OC(C)=O)cc(COC(=O)CN3CCN(c4ccccc4)CC3)cc1C2=O | Active | 
11 | CC(=O)Oc1cccc2c1C(=O)c1c(OC(C)=O)cc(COC(=O)CN3CCSCC3)cc1C2=O | Active | 
12 | O=C(CN1CCN(c2ccccc2)CC1)OCc1cc(O)c2c(c1)C(=O)c1cccc(O)c1C2=O | Active | 
13 | CN1CCN(CC(=O)OCc2cc(O)c3c(c2)C(=O)c2cccc(O)c2C3=O)CC1 |  | inhibition (RAW264.7 [2]): Dde; inhibition (RAW264.7 [3]): Active; Activity (RAW264.7 [4]): Active; inhibition (RAW264.7 [5]): Dde; inhibition (RAW264.7 [6]): Active; inhibition (RAW264.7 [7]): Dde; inhibition (RAW264.7 [8]): Dde; Activity (RAW264.7 [9]): Active; Activity (RAW264.7 [10]): Non-Toxic; inhibition (RAW264.7 [11]): Active; inhibition [12]: Dde; inhibition (RAW264.7 [13]): Dde; inhibition (RAW264.7 [14]): Dde; inhibition (RAW264.7 [15]): Dde; inhibition (RAW264.7 [16]): Active; IC50 (RAW264.7 [17]): 3.15 µM
14 | CCCN(C)CC(=O)OCc1cc(O)c2c(c1)C(=O)c1cccc(O)c1C2=O | Active | 
15 | O=C(CN1CCSCC1)OCc1cc(O)c2c(c1)C(=O)c1cccc(O)c1C2=O | Active | 
16 | O=C(CN1CCCCC1)OCc1cc(O)c2c(c1)C(=O)c1cccc(O)c1C2=O | Active | 
17 | O=C(CN1CCOCC1)OCc1cc(OC(=O)c2ccccc2)c2c(c1)C(=O)c1cccc(OC(=O)c3ccccc3)c1C2=O | Active | 
18 | CC(C)C(=O)Oc1cccc2c1C(=O)c1c(OC(=O)C(C)C)cc(COC(=O)CN3CCOCC3)cc1C2=O | Active | 
19 | CC(=O)Oc1cccc2c1C(=O)c1c(OC(C)=O)cc(COC(=O)CN3CCCCC3)cc1C2=O | Active | 
